Measured values: patent US20140179606A1, “LEFT VENTRICULAR DIASTOLIC FUNCTION IMPROVING AGENT” (priority 2011, published 2014)

How the values were obtained:
[1] = test system: acute heart failure model; experiment: Evaluation of hemodynamics in acute heart failure model; assay type: in vivo, beagle; settings: for Peak Negative dP/dt Change Ratio (%): indication of left ventricular diastolic function, 60 minutes after administration; for Peak Negative dP/dt Change Ratio (%) / Systemic Vascular Resistance Change Ratio (%) / Peak Positive dP/dt Change Ratio (%) / Left Ventricular End-Diastolic Pressure Change Ratio (%): continuous iv; for Peak Negative dP/dt Change Ratio (%) / Peak Positive dP/dt Change Ratio (%): two increasing doses; for Systemic Vascular Resistance Change Ratio (%): indication of afterload; for Peak Positive dP/dt Change Ratio (%): indication of left ventricular systolic function; for Left Ventricular End-Diastolic Pressure Change Ratio (%): indication of preload
Protocol: The acute heart failure model was produced by the following method. A male beagle (the weight was more than 10 kg) was anesthetized with pentobarbital sodium (30 mg/kg, intravenous administration), and then a tracheal catheter was introduced to the trachea and connected to a ventilator. The frequency of breath of the ventilator was set to 15 strokes per minute; the amount of ventilation was set to 20 mL/kg per stroke, and the respiration was controlled by using a mixed gas (Air:O2=3:0.2 as an indication). The animal was fixed with the lateral position and the hair of the left chest area, left and right femoral areas and cervical region was cut. Pentobarbital sodium (5 mg/kg/hr) was intravenously administered continuously from right cephalic vein, and the anesthesia was continued. The chest was opened at the left fourth rib, and the ascending aorta origin was exfoliated. Lactated Ringer's solution was intravenously administered continuously from the catheter inserted to the left femoral vein (5 mL/min). Further, in order to prevent the arrhythmia from occurring, propranolol hydrochloride (0.3 mL/min) was administered continuously together with the volume overload (mixed with lactated Ringer's solution) until the completion of the experiment. The left anterior descending coronary artery (LAD) was ligated 30 minutes after the administration of lactated Ringer's solution. After the hemodynamics became stable, methoxamine hydrochloride was administered continuously from the left femoral vein. In order to increase the systemic vascular resistance and thus decrease the cardiac output, methoxamine hydrochloride was maintained at the volume of 5 to 10 μg/kg/min so that the cardiac output decreased by 20% or more in comparison with the cardiac output before the volume overload, and methoxamine hydrochloride was administered continuously until the completion of the experiment.
From the point, at which the cardiac output decreased by 20% or more after the initiation of the continuous administration of methoxamine hydrochloride in comparison with the cardiac output before the administration of lactated Ringer's solution and other hemodynamics became stable, physiological saline (0.3 mL/min) was administered from the right femoral vein for 30 minutes (preceding phase of administration). Then, the compound A, (11α,13E,15α)-9-oxo-11,15-dihydroxy-16-(3-methoxymethylphenyl)-17,18,19,20-tetranor-5-tiaprost-13-enoic acid methyl ester (the EP4 agonist described in Example 1 of WO2000/003980, abbreviated to […] below), and carperitide (atrial natriuretic peptide), nitroglycerin (a vasodilator), nicorandil (a vasodilator) and milrinone (a phosphodiesterase III inhibitor: a compound having a cardiac effect and a vasodilation effect), which are existing agents for treating heart failure, were each administered for 30 minutes with increasing the dose gradually from the right femoral vein at the doses in the following table. The administered groups (four examples each) and the doses are shown below.
The measurement of cardiac hemodynamics was conducted every 10 minutes both during the preceding phase of administration and during the continuous administration of each dose.
Through the catheter introducer inserted to the right femoral artery, a pig tale catheter was introduced and indwelled in the left ventricle and connected to a disposable blood pressure transducer, and the left ventricular pressure (LVP) was measured through an amplifier for the measurement. […]

normal dog = experiment: Left ventricular action in a normal dog; assay type: in vivo
Source text: From the above results, it was considered that milrinone is not always appropriate for administering to a diastolic heart failure patient with normal systolic function because milrinone has a strong cardiotonic action, while the compound A selectively improves left ventricular diastolic function as compared with the effect to improve systolic function and thus is also effective for a diastolic heart failure patient with normal systolic function as well as a systolic heart failure patient in which both diastolic function and systolic function are impaired.

[2] = test system: Dahl rat heart failure model; experiment: Cardiac function and survival rate using Dahl rat (hypertensive / chronic heart failure model); assay type: in vivo; settings: oral, two times a day for 90 days, compound A 300 μg/kg, milrinone 1000 μg/kg; for survival rate: FIG. 2; for left ventricular diastolic wall strain (DWS) index: FIG. 3
Protocol: A model of hypertensive heart failure, which is diastolic heart failure, was prepared by feeding solid feed for high salt load rat (corresponding to 8% salt) to 47-day-old male DIS/Eis rats (Dahl rats). Solid feed for normal feed rat (corresponding to 0.3% salt) was fed to a normal control group (10 examples).
The test compounds were orally administered repeatedly for 90 days two times a day with the dose of 5 mL/kg using a stomach tube to 13-week-old Dahl rats. The dose of the compound A was 300 μg/kg and the dose of milrinone was 1000 μg/kg (30 examples each).
The cardiac functions were measured with using an ultrasound imaging device under 2% isoflurane anesthesia by a general anesthesia device for an animal before the administration (12 weeks old: grouping value), on the 45th day of the administration and the 91st day of the administration. The hair of the chest area of a rat was removed and the changes in the left ventricular end-diastolic dimension, the left ventricular end-systolic dimension, the end-diastolic left ventricular anterior wall thickness, the end-diastolic left ventricular posterior wall thickness, the end-systolic left ventricular posterior wall thickness and the left ventricular posterior epicardial surface were measured with placing a linear probe on the chest area with M-mode. Further, the left ventricular ejection fraction (LVEF) and the left ventricular diastolic wall strain (DWS) index as the indication of left ventricular diastolic function were calculated.
The general state was observed once or twice a day throughout the experiment period, and dead or alive was confirmed and the general symptoms were recorded.

[3] = Toxicity, repeated oral administration to a dog for four weeks; assay type: in vivo; settings: dose up to 30 times the dose showing vasodilation effect on single administration
Source text: Toxicity of the compound used for the agent of present invention is very low, and the compound is safe enough to be used as a medicine.

In the case of `CC[C@H](C)[C@@H]1NC(=O)[C@H](CCCNC(=N)N)NC(=O)[C@H](CC(=O)O)NC(=O)[C@H](CCSC)NC(=O)[C@H](CCCNC(=N)N)NC(=O)CNC(=O)CNC(=O)[C@H](Cc2ccccc2)NC(=O)[C@@H](NC(=O)[C@H](CO)NC(=O)[C@H](CO)NC(=O)[C@H](CCCNC(=N)N)NC(=O)[C@H](CCCNC(=N)N)NC(=O)[C@H](CC(C)C)NC(=O)[C@@H](N)CO)CSSC[C@@H](C(=O)N[C@@H](CC(N)=O)C(=O)N[C@@H](CO)C(=O)N[C@@H](Cc2ccccc2)C(=O)N[C@@H](CCCNC(=N)N)C(=O)N[C@@H](Cc2ccc(O)cc2)C(=O)O)NC(=O)CNC(=O)[C@H](CC(C)C)NC(=O)CNC(=O)[C@H](CO)NC(=O)[C@H](CCC(N)=O)NC(=O)[C@H](C)NC(=O)CNC1=O` [Carperitide, carperitide], the “Peak Negative dP/dt Change Ratio (%)” value [1] is reported as −6%.

With `O=C(O)CCCSCCN1C(=O)CC[C@@H]1/C=C/[C@@H](O)Cc1ccc(F)cc1` [Compound A, 4-[(2-{(2R)-2-[(1E,3S)-4-(4-fluorophenyl)-3-hydroxy-1-buten-1-yl]-5-oxo-1-pyrrolidinyl}ethyl)thio]butanoic acid] the “PaO2 (arterial oxygen pressure) change ratio” value ([1]; continuous iv 3, 10 ng/kg/min) was 111.5%, the “increase of cardiac output” value ([1]; continuous iv 3, 10 ng/kg/min) was “about 60%” and the “urine volume change ratio” value ([1]; continuous iv 3, 10 ng/kg/min) was 145.4%. The “Systemic Vascular Resistance Change Ratio (%)” value [1] was −34%, the “Peak Negative dP/dt Change Ratio (%)” value [1] was 48% and the “Peak Positive dP/dt Change Ratio (%)” value [1] was 16%. The “Left Ventricular End-Diastolic Pressure Change Ratio (%)” value [1] was −42%, the “left ventricular diastolic / systolic action in a normal dog” value (normal dog) was “did not show left ventricular diastolic action or left ventricular systolic action” and the survival rate [2] was “drastically improved the survival rate”. For the same compound, the “left ventricular diastolic wall strain (DWS) index” value [2] was “remarkably improved DWS” and the toxicity [3] was “not found to be toxic”.

In the case of `COCc1cccc(CC(O)/C=C/C2C(O)CC(=O)C2CCSCCCC(=O)OC)c1` (stereo not drawn) [Compound B, (11α,13E,15α)-9-oxo-11,15-dihydroxy-16-(3-methoxymethylphenyl)-17,18,19,20-tetranor-5-tiaprost-13-enoic acid methyl ester], the “Systemic Vascular Resistance Change Ratio (%)” value [1] is reported as −43%, the “Peak Negative dP/dt Change Ratio (%)” value [1] is reported as −3% and the “Peak Positive dP/dt Change Ratio (%)” value [1] is reported as −4%. The “Left Ventricular End-Diastolic Pressure Change Ratio (%)” value [1] was −41%.

With `O=C(O)CCCCCCN1C(=O)CC[C@@H]1CC[C@@H](O)Cc1cccc(C(F)(F)F)c1` [Compound C] the “Systemic Vascular Resistance Change Ratio (%)” value [1] was −14%, the “Peak Negative dP/dt Change Ratio (%)” value [1] was −1% and the “Peak Positive dP/dt Change Ratio (%)” value [1] was 2%. The “Left Ventricular End-Diastolic Pressure Change Ratio (%)” value [1] was −37%.

In the case of `O=C(O)CCCSCCN1C(=O)CC[C@@H]1CC[C@@H](O)c1cccc(Oc2cccc(F)c2)c1` [Compound D], the “Systemic Vascular Resistance Change Ratio (%)” value [1] is reported as −42%, the “Peak Negative dP/dt Change Ratio (%)” value [1] is reported as −5% and the “Peak Positive dP/dt Change Ratio (%)” value [1] is reported as −9%. The “Left Ventricular End-Diastolic Pressure Change Ratio (%)” value [1] was −46%.

With `Cc1[nH]c(=O)c(C#N)cc1-c1ccncc1` [Milrinone, milrinone] the “Peak Negative dP/dt Change Ratio (%)” value [1] was 23%, the “Peak Positive dP/dt Change Ratio (%)” value [1] was 38% and the “left ventricular diastolic / systolic action in a normal dog” value (normal dog) was “showed a strong left ventricular systolic effect”. For the same compound, the survival rate [2] was “the degree of the improvement of the survival rate was small” and the “left ventricular diastolic wall strain (DWS) index” value [2] was “did not improve DWS”.

With `O=C(NCCO[N+](=O)[O-])c1cccnc1` [Nicorandil, nicorandil] the “Peak Negative dP/dt Change Ratio (%)” value [1] was −7%.

With `O=[N+]([O-])OCC(CO[N+](=O)[O-])O[N+](=O)[O-]` [Nitroglycerin, nitroglycerin] the “Peak Negative dP/dt Change Ratio (%)” value [1] was −8%.
